Reference: US8802240B2, “Uses of formulations of thyroid hormone analogs and nanoparticulate forms thereof to increase chemosensitivity and radiosensitivity in tumor or cancer cells” (Nanopharmaceuticals LLC, priority 2011, dated 2014)

Key:
GL261 cells [1] = assay: GL261 apoptosis and necrosis with or without 5 Gy x-rays; assay type: cell-based, murine; settings: Tetrac 2 μM, T-NP 0.2 μM
Method: Apoptotic cells were identified using TUNEL staining (Terminal deoxynucleotidyl transferase dUTP nick end labeling (TUNEL)) (staining kit obtained from Oncor, Gaithersberg, Md.; ApoTag) (See Gavrieli et al., J. Cell. Biol. 1992. 119:493-501). The staining procedures were carried out as instructed by the manufacturer. Gill's hematoxylin was used as a counterstain to discriminate negative cells (purple) from positive cells (brown). Negative controls were performed by omitting the terminal deoxynucleotidyl transferase enzyme. Positive controls were performed by incubating cells with Dnase I (3000 U/ml) in 50 mM Tris-HCl, pH 7.5, in 1 mg/ml bovine serum albumin (BSA) for 10 min at ambient temperature.
To perform FCM, a total of 10^6 adherent cells were trypsinized and washed once in ambient temperature PBS. They were then fixed in 70% ethanol, and stored overnight, at 4° C. […] Cells were left overnight at 4° C. in the dark and were then analyzed on a Coulter fluorescence-activated cell sorter (Coulter Electronics, Hialeah, Fla.). Cells were excited with a single 488 nm argon laser and the resulting fluorescence was detected using a 585 nm filter. Linear red-orange fluorescence (FL3) data were collected in list format and 10,000 events were collected. The distribution of cells within the cell cycle (sub-G1, G1, S, and G2+M phases) was determined using a Coulter software program.

[2] = system: GL261 murine brain tumor cells; assay: GL261 growth curve, colony forming efficiency and cell size; assay type: cell-based
Method: 1×10^5 cells per 25 cm^2 flask at time zero (density 40 cells/mm^2). Three flasks were utilized at each time period. The medium in the flasks was not changed over the duration of the growth curve (unfed cultures). Data were taken daily from day zero to day 11.5 post-seeding and cell numbers, age distributions, and apoptotic percentages were determined. After growth curve shapes (without and with 2 μM Tetrac) were determined, irradiation times at 70 and 270 hour post-seeding were chosen.
To obtain exponential and plateau phase cell numbers, we trypsinized ([…] trypsin-EDTA) cells for 5 min at 37° C.
For determination of CCDTs, the cell numbers per flask were determined on a daily basis. A four-day interval in the exponential region of growth to obtain the CCDTs, yielding a total of 12 estimations for analysis was utilized. A regression analysis was performed using the (log) of the cell number versus the linear time in days (SigmaPlot, V. 10, Systat Software, Inc., Point Richmond, Calif.). The log slope value and its standard error (SE) were determined, and the SE was converted to the 95% confidence limits using a two-tailed t-table at N−1 degrees of freedom where N is the number of samples. (See Goldstein, A. In: Biostatistics, New York, The MacMillan Co., 1964, p. 140-146).

GL261 cells [3] = assay: GL261 sublethal damage repair (SLDR), split dose; assay type: cell-based, murine
Method: SLDR was measured at 10% immediate survival level as determined from the acute single dose curve for both control and Tetrac-treated cells in both growth states (i.e. exponentially growing and plateau phase cells. Flasks were irradiated with one-half of the total dose and returned to the 37° C. incubator. At increasing periods of time, flasks were removed, and given the second half of the immediate 10% survival dose. Survival was measured at 0, 0.5, 1.0, 1.5, 2.0, 3.0, 4.0, 6.0, 8.0, and 10.0 hours after the initial dose.
To investigate the effects of Tetrac on SLDR and PLDR, cells were chosen that had been given a one-hour treatment with Tetrac at two different times, i.e., at 70 and 270 hours post-seeding).

[4] = system: GL261 murine brain tumor cells; assay: GL261 clonogenic survival after single doses of 250 kVp x-rays; assay type: cell-based
Method: To irradiate 25 cm^2 flasks, an x-ray machine was used and (Philips 250 kVp Therapeutic X-ray Machine, Einhoven, […]) operated at 250 kVp and 15 mA with added filtration of 0.4 mm Thoreaus filter. The target to source distance was approximately 30 cm. Dose rates were measured using an R-meter (Victoreen R-meter, Cleveland, Ohio), and converted to absorbed (Gy) doses using appropriate temperature, pressure, and R to Gy conversion factors. The dose rate was 1 Gy per min. Flasks were irradiated at ambient temperature.
For […] analyses, survival data lying at or below 36.8% survival were analyzed by using the log fractional survival (log F×S) versus dose (D). Data were fit using linear regression analysis (SigmaPlot, V. 10, Systat Corp., Point Richmond, Calif.) to obtain the Y-intercept (or n, the extrapolation number) and the slope (1/D0), and their 95% confidence limits. (See Goldstein, A. In: Biostatistics, New York, The MacMillan Co., 1964, p. 140-146). The D0 value (Gy) is defined as the inverse of the slope, and the corrected Dq value (Gy) was then defined using the relationship: Dq(Gy)=ln n×D0(Gy) The 95% confidence limits on Dq were defined using error propagation. (See Chase, et al., In: Principles of Radioisotope Methodology. Minneapolis, Minn. Burgess Publ. Co., 1962, p. 68, 87-90). Statistics: LQ Analysis
For LQ analyses, data lying between a fractional survival of 1.00 and 0.05 were used. The fractional survival data at each dose were transformed using the relationship (−ln F×S/D) and plotted against dose (D). A regression analysis was performed to yield the LQ equation along with their 95% confidence limit values using a t-table with the appropriate (N−1) degrees of freedom. (See Goldstein, A. In: Biostatistics, New York, The MacMillan Co., 1964, p. 140-146).
To determine the Tetrac modification factor (TMF), the survival at 2 Gy obtained for control cells was divided by the survival at 2 Gy for Tetrac treated cells. The 95% confidence limits on the ratio were determined using error propagation techniques. (See Chase, et al. In: Principles of Radioisotope Methodology, Minneapolis, Minn., Burgress Publ. Co., 1962, p. 68, 87-90).

O=C(O)Cc1cc(I)c(Oc2cc(I)c(O)c(I)c2)c(I)c1 [Tetrac, tetraiodothyroacetic acid]
half-time for Tetrac uptake (Tetrac uptake): 10 to 15 min
effect on necrosis, necrotic percentage at 120 hours (in words) (GL261 cells [1]): essentially additive
effect plus 5 Gy of x-rays on apoptosis (in words) (GL261 cells [1]): supra-additive
CFE (%) ([2]; exponential cells (+Tetrac), control 30.6, with feeder cells): 24.2%
size of Tetrac-treated cells relative to control (volumetric data) ([2]; exponential phase): 1.4 times
size of Tetrac-treated cells relative to control (volumetric data) ([2]; plateau phase): 1.9 times
repair of x-ray damage at 6 to 8 hours post-irradiation (in words) (GL261 cells [3]; 2 uM, FIG. 58, control repaired by a factor of 4 to 5): showed no repair of x-ray damage
reduction of SLDR by a factor of (GL261 cells [3]; exponential cells): 1.8
SLDR recovery ratio at 10 hours post-irradiation (GL261 cells [3]; exponential cells, two 2.50 Gy split doses, control approximately 4 to 5): approximately 2.2
SLDR recovery ratio at 2 hours after the first dose (GL261 cells [3]; exponential cells, control approximately 2.5): 1.8
survival at 3 hours after the initial dose, relative to survival at 0 hours (fixation of damage) (GL261 cells [3]; plateau phase cells with Tetrac): approximately 36%
decrease in cellular repair (SLDR) by a factor of (GL261 cells [3]; plateau phase cells, three hours post-irradiation): ~3
sensitization of oxic and hypoxic cells (in words) ([4]; 2 μM, graded doses of 250 kVp x-rays): sensitize both oxic and hypoxic cells equally
SF2 (fractional survival at 2 Gy) ([4]; exponential phase with Tetrac, control 32.7): 14.2 (10.8-18.8) %
increase of the D0 value after addition of Tetrac ([4]; exponentially growing cells): 15%
reduction of the Dq value after addition of Tetrac ([4]; exponentially growing cells): 100%
reduction of the extrapolation number n after addition of Tetrac ([4]; exponentially growing cells): 93%
reduction of n after addition of Tetrac ([4]; plateau phase cells): 93%
reduction of the D0 after addition of Tetrac ([4]; plateau phase cells): 6%
reduction of the Dq after addition of Tetrac ([4]; plateau phase cells): 100%
SF2 (fractional survival at 2 Gy) ([4]; unfed plateau phase with Tetrac, control 20.6): 7.6%
